The text below walks through data of patent US20220024921A1, “1,3,4-OXADIAZOLONE COMPOUND AND PHARMACEUTICAL” (NIPPON SHINYAKU CO., LTD., priority 2018, published 2022).

The term IC50 denotes the concentration needed to halve the response being measured.

The structures appear in SMILES notation. Structures can show the parent of a compound that is named as a salt.

Assay [1] deals with PIM1 transgenic cells (Ba/F3) (Homo sapiens, UniProt P11309). The assay can be described thus: Proliferation inhibitory effect on PIM1 transgenic cells. In kind it is cell-based, mouse. The note with it: proliferation inhibition, 72 hours, Cell Counting Kit-8, read-out: PIM1 IC50. An outline of the steps:
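Mouse Ba/F3 pro-B cells were retrovirally transduced with human PIM1 so that their proliferation depends on PIM1. Cells were treated with compound at 1–10000 nM final for 72 h, then read by CCK-8 (OD450−OD650). Inhibition was set against DMSO (0%) and no-cell blank (100%), and IC50 was obtained by two-parameter logistic regression.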
On the technique in general: Formazan colour is commonly taken as a measure of viable cells.

The target in assay [2] is T1, PIM1 serine/threonine kinase (Homo sapiens, UniProt P11309).
T1 construct: purchased Carna Bioscience, Inc
T1 sequence (P11309 whole entry): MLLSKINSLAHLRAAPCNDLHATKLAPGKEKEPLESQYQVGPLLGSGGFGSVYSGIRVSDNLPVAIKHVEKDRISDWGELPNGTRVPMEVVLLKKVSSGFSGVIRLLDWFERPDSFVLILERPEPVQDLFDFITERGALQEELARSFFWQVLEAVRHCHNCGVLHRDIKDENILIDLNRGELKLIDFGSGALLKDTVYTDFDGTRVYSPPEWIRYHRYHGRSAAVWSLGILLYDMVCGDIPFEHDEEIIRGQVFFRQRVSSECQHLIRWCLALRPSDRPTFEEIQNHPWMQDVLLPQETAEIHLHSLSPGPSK
The assay can be described thus: PIM1 serine/threonine kinase inhibitory effect. The format is biochemical. As to conditions: PIM1 serine/threonine kinase activity; ATP 40 μM; 30° C., 30 minutes. The method, boiled down:
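Compounds were tested in duplicate from 0.01 to 10000 nM final against PIM1 kinase (0.15 μg/ml). The reaction ran for 30 minutes at 30° C with 40 μM ATP and 0.5 μM biotin-tagged substrate at pH 7.0. Phosphorylation was read by time-resolved FRET (OD665/OD620) after 1 h; IC50 by non-linear fit.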

Chain of PIM1 transgenic cells (Ba/F3) (P11309 whole entry, stated change not applied): as the sequence (P11309 whole entry) above

For the compound `C[C@H](Nc1nc(-c2n[nH]c(=O)o2)ccc1C(F)(F)F)C1CCNCC1` [Example 114, 5-[6-{[(1S)-1-(piperidin-4-yl)ethyl]amino}-5-(trifluoromethyl)pyridin-2-yl]-1,3,4-oxadiazol-2(3H)-one hydrochloride hydrochloride], in assay [1], the GI50 was determined as 300 nM. Further, the IC50 in assay [2] is 8.4 nM.
On to `CC(Nc1cc(-c2n[nH]c(=O)o2)ccc1C(F)(F)F)C1(C)CCNCC1` (stereo not shown) [Example 115, 5-[3-{[1-(4-methylpiperidin-4-yl)ethyl]amino}-4-(trifluoromethyl)phenyl]-1,3,4-oxadiazol-2(3H)-one], for which, in assay [1], the GI50 was 100 nM. The same compound showed an IC50 in assay [2] of 12 nM.
For the compound `O=c1[nH]nc(-c2cc(NCC3(F)CCNCC3)c3cn[nH]c3c2)o1` [Example 116, 5-(4-{[(4-fluoropiperidin-4-yl)methyl]amino}-1H-indazol-6-yl)-1,3,4-oxadiazol-2(3H)-one hydrochloride], in assay [1], the GI50 worked out at 4200 nM. The IC50 in assay [2] is 4.3 nM.
On the same counts, the results for `N[C@H]1CC[C@H](CCNc2cc(-c3n[nH]c(=O)o3)ccc2C(F)(F)F)CC1` [Example 117, 5-[3-({2-[(1r,4r)-4-aminocyclohexyl]ethyl}amino)-4-(trifluoromethyl)phenyl]-1,3,4-oxadiazol-2(3H)-one hydrochloride] are 1300 nM and 31 nM.
On the same counts, the results for `CCC1(CNc2cc(-c3n[nH]c(=O)o3)ccc2C(F)(F)F)CCNCC1` [Example 122, 5-[3-{[(4-ethylpiperidin-4-yl)methyl]amino}-4-(trifluoromethyl)phenyl]-1,3,4-oxadiazol-2(3H)-one hydrochloride] are 220 nM and 6.5 nM.
As for `O=c1[nH]nc(-c2cc(F)c(Cl)c(NCC3(F)CCNCC3)c2)o1` [Example 123, 5-(4-chloro-3-fluoro-5-{[(4-fluoropiperidin-4-yl)methyl]amino}phenyl)-1,3,4-oxadiazol-2(3H)-one hydrochloride], the GI50 in assay [1] stood at 340 nM. In assay [2], this compound showed an IC50 of 8.2 nM.
On the same counts, the results for `O=c1[nH]nc(-c2cc(Br)c3cnn(CC4CCNCC4)c3c2)o1` [Example 124, 5-{4-bromo-1-[(piperidin-4-yl)methyl]-1H-indazol-6-yl}-1,3,4-oxadiazol-2(3H)-one hydrochloride] are 4100 nM and 26 nM.
Consider `O=c1[nH]nc(-c2ccc(C(F)(F)F)c(NC[C@H]3CCNC[C@H]3F)c2)o1` [Example 126, 5-[3-({[(3S,4R)-3-fluoropiperidin-4-yl]methyl}amino)-4-(trifluoromethyl)phenyl]-1,3,4-oxadiazol-2(3H)-one hydrochloride], for which the GI50 in assay [1] is 600 nM. In assay [2], this compound showed an IC50 of 11 nM.
For the compound `O=c1[nH]nc(-c2ccc(C(F)(F)F)c(NC[C@@H]3CCNC[C@H]3F)c2)o1` [Example 127, 5-[3-({[(3S,4S)-3-fluoropiperidin-4-yl]methyl}amino)-4-(trifluoromethyl)phenyl]-1,3,4-oxadiazol-2(3H)-one hydrochloride], the GI50 in assay [1] was 440 nM. Also, the IC50 in assay [2] came out at 21 nM.
Turning to `O=c1[nH]nc(-c2cc(F)c(C(F)(F)F)c(NCC3(F)CCNCC3)c2)o1` [Example 129, 5-[3-fluoro-5-{[(4-fluoropiperidin-4-yl)methyl]amino}-4-(trifluoromethyl)phenyl]-1,3,4-oxadiazol-2(3H)-one hydrochloride], in assay [1], the GI50 came out at 360 nM. Further, in assay [2], 8.2 nM corresponded to half-maximal inhibition (IC50).
On the same counts, the results for `CN(C[C@H]1CC[C@H](N)CC1)c1cc(-c2n[nH]c(=O)o2)ccc1C(F)(F)F` [Example 130, 5-{3-[{[(1r,4r)-4-aminocyclohexyl]methyl}(methyl)amino]-4-(trifluoromethyl)phenyl}-1,3,4-oxadiazol-2(3H)-one hydrochloride] are 280 nM and 19 nM.
On the same counts, the results for `CN[C@H]1CC[C@H](CNc2cc(-c3n[nH]c(=O)o3)ccc2C(F)(F)F)CC1` [Example 131, 5-[3-({[(1r,4r)-4-(methylamino)cyclohexyl]methyl}amino)-4-(trifluoromethyl)phenyl]-1,3,4-oxadiazol-2(3H)-one hydrochloride] are 71 nM and 3 nM.
With `CN[C@H]1CC[C@H](CN(C)c2cc(-c3n[nH]c(=O)o3)ccc2C(F)(F)F)CC1` [Example 132, 5-[3-(methyl{[(1r,4r)-4-(methylamino)cyclohexyl]methyl}amino)-4-(trifluoromethyl)phenyl]-1,3,4-oxadiazol-2(3H)-one hydrochloride], the GI50 in assay [1] amounted to 440 nM. This compound also displayed an IC50 in assay [2] of 17 nM.
`O=c1[nH]nc(-c2ccc(C(F)(F)F)c(NCC3C4CCC3CNC4)c2)o1` (stereo not shown) [Example 133, 5-[3-{[(3-azabicyclo[3.2.1]octan-8-yl)methyl]amino}-4-(trifluoromethyl)phenyl]-1,3,4-oxadiazol-2(3H)-one hydrochloride]: the GI50 in assay [1] came out at 200 nM. The IC50 in assay [2] came out at 8 nM.
For `O=c1[nH]nc(-c2ccc(C(F)(F)F)c(NC[C@@H]3C[C@H]4CC[C@@H](C3)N4)c2)o1` [Example 135, 5-[3-({[(1R,3s,5S)-8-azabicyclo[3.2.1]octan-3-yl]methyl}amino)-4-(trifluoromethyl)phenyl]-1,3,4-oxadiazol-2(3H)-one hydrochloride], the GI50 in assay [1] stood at 3500 nM. The compound further returned an IC50 in assay [2] of 29 nM.
Consider `CC[C@H](Nc1cc(-c2n[nH]c(=O)o2)ccc1C(F)(F)F)C1CCNCC1` [Example 138, 5-[3-{[(1S)-1-(piperidin-4-yl)propyl]amino}-4-(trifluoromethyl)phenyl]-1,3,4-oxadiazol-2(3H)-one hydrochloride], for which the GI50 in assay [1] stood at 73 nM. Half-maximal inhibition in assay [2] (IC50) was put at 4 nM.
Turning to `CC[C@H](Nc1cc(-c2n[nH]c(=O)o2)cc(F)c1Cl)C1CCNCC1` [Example 139, 5-(4-chloro-3-fluoro-5-{[(1S)-1-(piperidin-4-yl)propyl]amino}phenyl)-1,3,4-oxadiazol-2(3H)-one hydrochloride], the GI50 in assay [1] is 80 nM. In addition, in assay [2], the IC50 turned out to be 2.6 nM.
On the same counts, the results for `O=c1[nH]nc(-c2ccc(C(F)(F)F)c(N[C@@H](C(F)F)C3(F)CCNCC3)c2)o1` [Example 140, 5-[3-{[(1R)-2,2-difluoro-1-(4-fluoropiperidin-4-yl)ethyl]amino}-4-(trifluoromethyl)phenyl]-1,3,4-oxadiazol-2(3H)-one hydrochloride] are 57 nM and 4.1 nM.
On to `C[C@H]1CNCC[C@H]1CNc1cc(-c2n[nH]c(=O)o2)ccc1C(F)(F)F` [Example 141, 5-[3-({[(3R,4R)-3-methylpiperidin-4-yl]methyl}amino)-4-(trifluoromethyl)phenyl]-1,3,4-oxadiazol-2(3H)-one hydrochloride], for which the GI50 in assay [1] was determined as 250 nM. In assay [2], this compound gave an IC50 of 7.1 nM.
On the same counts, the results for `C[C@H](Nc1cc(-c2n[nH]c(=O)o2)ccc1C(F)(F)F)C1CC2(CCNCC2)C1` [Example 142, 5-[3-{[(1S)-1-(7-azaspiro[3.5]nonan-2-yl)ethyl]amino}-4-(trifluoromethyl)phenyl]-1,3,4-oxadiazol-2(3H)-one hydrochloride] are 220 nM and 11 nM.
As to `CC1CC(CNc2cc(-c3n[nH]c(=O)o3)ccc2C(F)(F)F)CCN1` (stereo not shown) [Example 143, 5-[3-{[(2-methylpiperidin-4-yl)methyl]amino}-4-(trifluoromethyl)phenyl]-1,3,4-oxadiazol-2(3H)-one hydrochloride], the GI50 in assay [1] worked out at 610 nM. The IC50 in assay [2] was found to be 14 nM.
On to `C[C@H](Nc1cc(-c2n[nH]c(=O)o2)ccc1C(F)(F)F)C1(C)CCNCC1` [Example 144, 5-[3-{[(1S)-1-(4-methylpiperidin-4-yl)ethyl]amino}-4-(trifluoromethyl)phenyl]-1,3,4-oxadiazol-2(3H)-one hydrochloride], for which the GI50 in assay [1] is 64 nM. The compound further yielded an IC50 in assay [2] of 2.9 nM.
Regarding `O=c1[nH]nc(-c2ccc(C(F)(F)F)c(N[C@H](C3CCNCC3)C(F)(F)F)c2)o1` [Example 146, 5-[4-(trifluoromethyl)-3-{[(1R)-2,2,2-trifluoro-1-(piperidin-4-yl)ethyl]amino}phenyl]-1,3,4-oxadiazol-2(3H)-one hydrochloride], in assay [1], the GI50 is 89 nM. Also, the IC50 in assay [2] was 12 nM.
Regarding `C[C@H](Nc1cc(-c2n[nH]c(=O)o2)ccc1Cl)[C@H]1CC[C@H](N)CC1` [Example 148, 5-[3-({(1S)-1-[(1r,4S)-4-aminocyclohexyl]ethyl}amino)-4-chlorophenyl]-1,3,4-oxadiazol-2(3H)-one hydrochloride], the GI50 in assay [1] was determined as 45 nM. The compound also had an IC50 in assay [2] of 3.7 nM.
For the compound `C[C@H](Nc1cc(-c2n[nH]c(=O)o2)ccc1C(F)(F)F)C1CC2(CNC2)C1` [Example 149, 5-[3-{[(1S)-1-(2-azaspiro[3.3]heptan-6-yl)ethyl]amino}-4-(trifluoromethyl)phenyl]-1,3,4-oxadiazol-2(3H)-one trifluoroacetate], in assay [1], the GI50 is 380 nM. The compound also came in with an IC50 in assay [2] of 9.1 nM.
As to `C[C@H](Nc1cc(-c2n[nH]c(=O)o2)cc(F)c1C(F)(F)F)[C@@H]1C[C@H](N)C1(C)C` [Example 150, 5-[3-({(1S)-1-[(1R,3S)-3-amino-2,2-dimethylcyclobutyl]ethyl}amino)-5-fluoro-4-(trifluoromethyl)phenyl]-1,3,4-oxadiazol-2(3H)-one hydrochloride], the GI50 in assay [1] was 9.2 nM. In assay [2], the IC50 was determined as 2 nM.
